These results are taken from patent US9938262B2, “Benzamides” (Merck Patent GmbH, priority 2011, dated 2018).

By EC50 is commonly meant the concentration at which the effect is half-maximal.

T1 sequence (P23945 18-695): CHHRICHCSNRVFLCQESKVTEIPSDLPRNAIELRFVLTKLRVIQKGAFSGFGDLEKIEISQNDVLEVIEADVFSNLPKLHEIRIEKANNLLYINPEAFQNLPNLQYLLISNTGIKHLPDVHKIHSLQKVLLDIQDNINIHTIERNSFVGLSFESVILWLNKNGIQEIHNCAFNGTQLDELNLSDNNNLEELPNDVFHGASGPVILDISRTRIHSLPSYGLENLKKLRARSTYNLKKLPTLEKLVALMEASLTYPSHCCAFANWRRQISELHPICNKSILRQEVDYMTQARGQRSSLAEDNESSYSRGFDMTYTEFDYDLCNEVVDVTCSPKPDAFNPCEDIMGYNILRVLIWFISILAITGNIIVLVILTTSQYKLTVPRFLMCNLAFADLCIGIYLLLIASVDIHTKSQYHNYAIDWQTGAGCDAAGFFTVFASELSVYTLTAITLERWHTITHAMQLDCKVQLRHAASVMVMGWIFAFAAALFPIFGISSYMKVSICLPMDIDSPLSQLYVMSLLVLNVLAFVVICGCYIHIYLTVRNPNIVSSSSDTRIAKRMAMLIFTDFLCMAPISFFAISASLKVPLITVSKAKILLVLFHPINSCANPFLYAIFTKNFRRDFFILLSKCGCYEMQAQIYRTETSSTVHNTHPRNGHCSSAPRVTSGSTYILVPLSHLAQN
T1 sequence (P01215 25-116 partner): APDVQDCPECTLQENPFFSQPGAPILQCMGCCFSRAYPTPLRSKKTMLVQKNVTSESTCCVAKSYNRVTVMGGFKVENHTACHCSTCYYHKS
T1 sequence (P01225 19-129 partner): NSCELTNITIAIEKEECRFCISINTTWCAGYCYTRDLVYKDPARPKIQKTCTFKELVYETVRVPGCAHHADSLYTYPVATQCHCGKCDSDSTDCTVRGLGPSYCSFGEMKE

The first test addresses T1, FSHR (Homo sapiens, UniProt P23945).
T1 construct: expressed in transfected cells; host or cells: CHO (Cho-FSHR-LUC-1-1-43)
As to the kind of experiment: EC50 of cyclic AMP production in CHO FSHR cells + EC20 FSH (Assay A). The format is cell-based. The note with it: 1 h; 5 μM; effect relative to maximum response of the FSH standard; Table 2. In a few lines:
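cAMP HTRF ratio (665/620 nm) read after 1 h, 37 °C exposure of CHO-FSHR cells to compound in presence of EC20 FSH ([…]) and IBMX 200 μM. Responses given relative to FSH standard maximum; EC50 derived.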
For the molecule `Cc1ccc(C(=O)Nc2cc(C(=O)NCCCN3CCOC3=O)ccc2N2CCN(c3nccn3C)CC2)o1` [Compound 514], the activation at 5 µM is 48%.

The test is the same for the next values; noted with them: CHO FSHR cells + EC20 FSH; Table 2; read-out: Assay A EC50 of cyclic AMP production.
Turning to `CCN(C)Cc1cccc(CNC(=O)c2ccc(N3CCN(c4ccccc4C)CC3)c(NC(=O)c3ccco3)c2)c1` [Compound 478], the EC50 is less than 0.1 µM.

As for `Cc1ccccc1N1CCN(c2ccc(C(=O)N[C@@H]3CCCC[C@@H](O)[C@H]3O)cc2NC(=O)c2coc(C3CC3)n2)CC1` [Compound 479], the EC50 was 0.1 to 1 µM. As for `Cc1ccccc1N1CCN(c2ccc(C(=O)N[C@@H]3CCC[C@@H](O)[C@H]3O)cc2NC(=O)c2coc(C3CC3)n2)CC1` [Compound 480], the concentration giving a half-maximal response (EC50) was less than 0.1 µM. Turning to `Cc1ccccc1N1CCN(c2ccc(C(=O)Nc3cccc(N4CCCC4=O)c3)cc2NC(=O)c2coc(C3CC3)n2)CC1` [Compound 481], the EC50 fell in the range of 0.1 to 1 µM. Same read-out and setting: in the case of `Cc1ccccc1N1CCN(c2ccc(C(=O)Nc3cccc(N4CCCC4=O)c3)cc2NC(=O)c2ccco2)CC1` [Compound 482] it was 1 to 10 µM. Consider `Cn1ccnc1N1CCN(c2ccc(C(=O)NCCCN3CCCC3=O)cc2NC(=O)c2coc(C3CC3)n2)CC1` [Compound 483], for which the EC50 was 1 to 10 µM. On the same count and under the same terms, with `COCc1cccc(CNC(=O)c2ccc(N3CCN(c4ccccc4C)CC3)c(NC(=O)c3ccco3)c2)c1` [Compound 484] the figure was 0.1 to 1 µM; with `Cc1ccccc1N1CCN(c2ccc(C(=O)NCc3cccc(C(=O)N(C)C)c3)cc2NC(=O)c2ccco2)CC1` [Compound 485], 0.1 to 1 µM. On the same count and under the same terms, in the case of `Cc1ccccc1N1CCN(c2ccc(C(=O)NC(C)(C)c3cccc(CN(C)C)c3)cc2NC(=O)c2coc(C3CC3)n2)CC1` [Compound 486] it was 1 to 10 µM; in that of `Cc1ccccc1N1CCN(c2ccc(C(=O)NC(C)(C)c3cccc(CN(C)C)c3)cc2NC(=O)c2ccco2)CC1` [Compound 487], 1 to 10 µM; in that of `Cc1ccccc1N1CCN(c2ccc(C(=O)NCCc3ccc(CNC(=O)OC(C)(C)C)cc3)cc2NC(=O)c2coc(C3CC3)n2)CC1` [Compound 489], 1 to 10 µM. As for `CCCNC(=O)NCCCNC(=O)c1ccc(N2CCN(c3ccccc3C)CC2)c(NC(=O)c2ccco2)c1` [Compound 490], the 50% effective concentration (EC50) is less than 0.1 µM. Take `CCCCNC(=O)NCCCNC(=O)c1ccc(N2CCN(c3ccccc3C)CC2)c(NC(=O)c2ccco2)c1` [Compound 491]: the EC50 is 0.1 to 1 µM. Consider `CCNC(=O)NCCCNC(=O)c1ccc(N2CCN(c3ccccc3C)CC2)c(NC(=O)c2ccco2)c1` [Compound 492], for which the EC50 lay in the range of 0.1 to 1 µM. The same measure, in the same setting: in the case of `Cc1ccccc1N1CCN(c2ccc(C(=O)NCCCNC(=O)NC(C)(C)C)cc2NC(=O)c2ccco2)CC1` [Compound 493] it was 0.1 to 1 µM; in that of `Cc1ccccc1N1CCN(c2ccc(C(=O)NCCCNC(=O)NC3CCCC3)cc2NC(=O)c2ccco2)CC1` [Compound 494], 0.1 to 1 µM. Still for that read-out and setting: with `Cc1ccccc1N1CCN(c2ccc(C(=O)NCCCNC(=O)NC(C)C)cc2NC(=O)c2ccco2)CC1` [Compound 495] the figure was 0.1 to 1 µM; with `Cc1ccccc1N1CCN(c2ccc(C(=O)NCCCNC(=O)NC3CCCCC3)cc2NC(=O)c2ccco2)CC1` [Compound 496], 0.1 to 1 µM. Still for that read-out and setting: in the case of `Cc1ccccc1N1CCN(c2ccc(C(=O)NCCCNC(=O)NCC3CCCCC3)cc2NC(=O)c2ccco2)CC1` [Compound 497] it was 1 to 10 µM; in that of `Cc1ccccc1N1CCN(c2ccc(C(=O)NCCc3ccc(CN)cc3)cc2NC(=O)c2coc(C3CC3)n2)CC1` [Compound 499], 0.1 to 1 µM; in that of `Cc1nc(CCCNC(=O)c2ccc(N3CCN(c4ccccc4C)CC3)c(NC(=O)c3coc(C4CC4)n3)c2)no1` [Compound 500], 0.1 to 1 µM.

`Cc1ccccc1N1CCN(c2ccc(C(=O)NCC(O)CN3CCCC3)cc2NC(=O)c2ccco2)CC1` (stereo not drawn) [Compound 501]: the EC50 was 0.1 to 1 µM.

Consider `Cc1ccccc1N1CCN(c2ccc(C(=O)NCCN(C)C3CCCC3)cc2NC(=O)c2ccco2)CC1` [Compound 502], for which the EC50 is 0.1 to 1 µM. Consider `Cc1ccccc1N1CCN(c2ccc(C(=O)NCCCN3CCCC3C(N)=O)cc2NC(=O)c2ccco2)CC1` (stereo not drawn) [Compound 503], for which the EC50 fell in the range of 0.1 to 1 µM.

In the case of `Cc1ccccc1N1CCN(c2ccc(C(=O)NCCN(C)C3CCS(=O)(=O)C3)cc2NC(=O)c2ccco2)CC1` (stereo not drawn) [Compound 504], the EC50 fell in the range of 0.1 to 1 µM.

On to `O=C(NCCCN1CCCC1=O)c1ccc(N2CCN(c3nccs3)CC2)c(NC(=O)c2coc(C3CC3)n2)c1` [Compound 505], for which the concentration for a half-maximal effect (EC50) lay within 1 to 10 µM.

On to `COc1cccc(N2CCN(c3ccc(C(=O)NCCCN4CCCC4=O)cc3NC(=O)c3coc(C4CC4)n3)CC2)n1` [Compound 507], for which the EC50 fell in the range of 0.1 to 1 µM. With `CCC(C)NC(=O)NCCCNC(=O)c1ccc(N2CCN(c3ccccc3C)CC2)c(NC(=O)c2ccco2)c1` (stereo not drawn) [Compound 511], the EC50 was in the range of 0.1 to 1 µM.

As for `C=CCNC(=O)NCCCNC(=O)c1ccc(N2CCN(c3ccccc3C)CC2)c(NC(=O)c2ccco2)c1` [Compound 512], the EC50 was less than 0.1 µM. With `Cn1ccnc1N1CCN(c2ccc(C(=O)NCCCN3CCOC3=O)cc2NC(=O)c2coc(C3CC3)n2)CC1` [Compound 513], the EC50 is 1 to 10 µM. On the same count and under the same terms, with `Cc1ccccc1N1CCN(c2ccc(C(=O)NCCCC(=O)NCCO)cc2NC(=O)c2coc(C3CC3)n2)CC1` [Compound 515] the figure was less than 0.1 µM; with `CCc1ccccc1N1CCN(c2ccc(C(=O)NCCCN3CCCC3=O)cc2NC(=O)c2coc(C3CC3)n2)CC1` [Compound 516], 0.1 to 1 µM. Same read-out and setting: with `CCc1ccccc1N1CCN(c2ccc(C(=O)NCCCN3CCCC3=O)cc2NC(=O)c2ccc(C)o2)CC1` [Compound 517] the figure was 0.1 to 1 µM; with `Cc1ccc(C)c(N2CCN(c3ccc(C(=O)NCCCN4CCCC4=O)cc3NC(=O)c3ccc(C)o3)CC2)c1` [Compound 519], 0.1 to 1 µM; with `Cc1ccc(C(=O)Nc2cc(C(=O)NCCCN3CCCC3=O)ccc2N2CCN(c3cccc(C)c3C)CC2)o1` [Compound 521], 0.1 to 1 µM. The same measure, in the same setting: with `Cc1ccc(C(=O)Nc2cc(C(=O)NCCCN3CCCC3=O)ccc2N2CCN(c3ccccc3C#N)CC2)o1` [Compound 522] the figure was 1 to 10 µM; with `O=C(NCCCN1CCCC1=O)c1ccc(N2CCN(c3ccccc3C3CC3)CC2)c(NC(=O)c2coc(C3CC3)n2)c1` [Compound 524], 0.1 to 1 µM. `N#Cc1ccccc1N1CCN(c2ccc(C(=O)NCCCN3CCCC3=O)cc2NC(=O)c2coc(C3CC3)n2)CC1` [Compound 525]: the EC50 is 0.1 to 1 µM. On the same count and under the same terms, with `Cc1ccccc1N1CCN(c2ccc(C(=O)NCc3cccc(C(F)(F)F)c3)cc2NC(=O)c2ccco2)CC1` [Compound 527] the figure was 0.1 to 1 µM; with `Cc1ccccc1N1CCN(c2ccc(C(=O)NCc3cccc(C(F)(F)F)c3)cc2NC(=O)c2coc(C3CC3)n2)CC1` [Compound 528], 1 to 10 µM; with `COc1ccnc(N2CCN(c3ccc(C(=O)NCCCN4CCCC4=O)cc3NC(=O)c3coc(C4CC4)n3)CC2)c1` [Compound 530], 1 to 10 µM. With `NC(=O)c1cccnc1N1CCN(c2ccc(C(=O)NCCCN3CCCC3=O)cc2NC(=O)c2coc(C3CC3)n2)CC1` [Compound 532], the EC50 is greater than 10 µM. For `Cc1cncc(N2CCN(c3ccc(C(=O)NCCCN4CCCC4=O)cc3NC(=O)c3coc(C4CC4)n3)CC2)n1` [Compound 533], the EC50 lay in the range of 1 to 10 µM. Same read-out and setting: with `Cc1ccccc1N1CCN(c2ccc(C(=O)NCC[C@H]3COC(C)(C)O3)cc2NC(=O)c2coc(C3CC3)n2)CC1` [Compound 535] the figure was 0.1 to 1 µM; with `CCN(CC)Cc1cccc(CNC(=O)c2ccc(N3CCN(c4ccccc4C)CC3)c(NC(=O)c3coc(C4CC4)n3)c2)c1` [Compound 536], 0.1 to 1 µM; with `CCN(C)Cc1cccc(CNC(=O)c2ccc(N3CCN(c4ccccc4C)CC3)c(NC(=O)c3coc(C4CC4)n3)c2)c1` [Compound 537], 0.1 to 1 µM. As for `Cc1ccccc1N1CCN(c2ccc(C(=O)NCc3cccc(CN4CCCC4)c3)cc2NC(=O)c2coc(C3CC3)n2)CC1` [Compound 538], the EC50 fell in the range of 0.1 to 1 µM. For `Cc1ccccc1C1(O)CCN(c2ccc(C(=O)NCCCN3CCCC3=O)cc2NC(=O)c2coc(C3CC3)n2)CC1` [Compound 539], the EC50 lay within 1 to 10 µM. On to `Cc1ccccc1N1CCN(c2ccc(C(=O)NCCCN3CCCC3=O)cc2NC(=O)C2CC2(F)F)CC1` (stereo not drawn) [Compound 540], for which the EC50 fell in the range of 1 to 10 µM. Consider `Cc1ccccc1N1CCN(c2ccc(C(=O)NOC[C@H](O)CO)cc2NC(=O)c2coc(C3CC3)n2)CC1` [Compound 542], for which the EC50 was 0.1 to 1 µM.

Take `CCN(CC)Cc1cccc(CNC(=O)c2ccc(N3CCN(c4ccccc4C)CC3)c(NC(=O)c3ccc(C)o3)c2)c1` [Compound 543]: the EC50 is 1 to 10 µM. On to `Cc1ccc(C(=O)Nc2cc(C(=O)NCc3cccc(CN(C)C)c3)ccc2N2CCN(c3ccccc3C)CC2)o1` [Compound 544], for which the EC50 was in the range of 1 to 10 µM.

In the case of `Cc1ccc(C(=O)Nc2cc(C(=O)NC(C)(C)c3cccc(CN(C)C)c3)ccc2N2CCN(c3ccccc3C)CC2)o1` [Compound 545], the EC50 fell in the range of 1 to 10 µM. On the same count and under the same terms, with `Cc1ccc(C(=O)Nc2cc(C(=O)NCc3cccc(CN4CCCC4)c3)ccc2N2CCN(c3ccccc3C)CC2)o1` [Compound 546] the figure was 1 to 10 µM. For the molecule `CCN(C)Cc1cccc(CNC(=O)c2ccc(N3CCN(c4ccccc4C)CC3)c(NC(=O)c3ccc(C)o3)c2)c1` [Compound 547], the concentration for a half-maximal effect (EC50) lay within 1 to 10 µM. Same read-out and setting: in the case of `Cc1ccccc1N1CCN(c2ccc(C(=O)NCCc3cn(C)cn3)cc2N(C(=O)C(F)(F)F)C(=O)C(F)(F)F)CC1` [Compound 548] it was 1 to 10 µM; in that of `Cc1ccccc1N1CCN(c2ccc(C(=O)NC[C@@H]3OC(C)(C)O[C@H]3CN)cc2NC(=O)c2coc(C3CC3)n2)CC1` [Compound 549], 0.1 to 1 µM; in that of `Cc1ccccc1N1CCN(c2ccc(C(=O)N[C@@H]3C[C@H](CO)[C@@H](O)[C@H]3O)cc2NC(=O)c2coc(C3CC3)n2)CC1` [Compound 551], less than 0.1 µM.

With `Cc1ccccc1N1CCN(c2ccc(C(=O)NC3CCCC(O)C3)cc2NC(=O)c2coc(C3CC3)n2)CC1` (stereo not drawn) [Compound 552], the EC50 is less than 0.1 µM.
